Measured values reported in patent US7510825B2, “Kits and methods for detection of apoptotic cells” (NST NeuroSurvival Technologies Ltd, priority 2000, dated 2009).

Test system: Jurkat cells (T-cell leukemia)
Assay: Binding of DDC and PI to Jurkat cells treated with CD95, confocal microscopy
Type: cell-based, human
Details: CD95 for 180 minutes; confocal microscope
Protocol: For microscopic analysis the concentration of cells should be within 1-2×10^7/ml. […] If fixation is needed, it should be performed after DDC staining. • 1. Adjusting the cells to 1-2×10^7/ml in buffer. • 2. Transferring 96 μl from the cell suspension to an eppendorf and staining the cells by adding 4 μl from the DDC solution. Incubating for 10-40 minutes at RT protected from light. • 3. A double labeling could be conducted with PI, if desired. In such a case, 1 μl is added from the PI solution. • 4, Placing the cell suspension on a glass slide. Covering the cells with a glass coverslip. Alternatively, for analyzing adherent cells, cells may grow directly on coverslip. Staining the cells by incubation with DDC (4 μl of DDC/96 μl buffer reaction) or 10-40 minutes and PI (1 μl). […] Observing the cells under fluorescent or confocal microscope equipped with the appropriate UV filter (excitation at 360-370 nm, band pass, and emission at 420 nm, barrier filter. Using a Triple filter (Hoechst/FITC/Texas Red) allows concomitant observation of both DDC and PI. Quantitative Assay for DDC Accumulation using Fluorescene Spectroscopy
Jurkat cells (T-cell leukemia) were treated with CD95 for 180 minutes and incubated with DDC followed by incubation with Propidium Iodide (PI) as detailed in DDC protocols IIIC. The cells were analyzed under fluorescent confocal microscope using a UV filter. […]

In the case of `CC[N+](C)(CC)CCC[n+]1c(-c2ccccc2)c2cc(N)ccc2c2ccc(N)cc21.[I-].[I-]` [PI, Propidium Iodide, reference compound], the “cellular staining pattern in apoptotic cells” value is reported as “Nuclear staining by PI can be seen only in late apoptotic cells”.
